According to ChEMBL document CHEMBL4265964, “Discover the leading compound of 4β-S-(5-fluorobenzoxazole)-4-deoxy-4'-demethylepipodophyllotoxin with millimolar-potency toxicity by modifying the molecule structure of 4'-demethylepipodophyllotoxin” (Eur J Med Chem, 2018):
Activity calls are given as the source filed them. The rule behind the calls is not given here.

Assays:
[1] = tested on: HepG2; experiment: Cytotoxicity against human HepG2 cells after 48 hrs by MTT assay; assay type: functional, cell-based; details: HepG2, 48 h
[2] = tested on: L02; experiment: Cytotoxicity against human HL7702 cells after 48 hrs by MTT assay; assay type: cell-based; details: L02, 48 h
[3] = tested on: HeLa; experiment: Cytotoxicity against human HeLa cells after 48 hrs by MTT assay; assay type: functional, cell-based
[4] = Cytotoxicity against human H8 cells after 48 hrs by MTT assay; assay type: cell-based
[5] = tested on: A549; experiment: Cytotoxicity against human A549 cells after 48 hrs by MTT assay; assay type: functional, cell-based; details: A549, 48 h
[6] = tested on: MRC5; experiment: Cytotoxicity against human MRC5 cells after 48 hrs by MTT assay; assay type: cell-based; details: MRC5, 48 h
[7] = tested on: MCF7; experiment: Cytotoxicity against human MCF7 cells after 48 hrs by MTT assay; assay type: functional, cell-based; details: MCF7, 48 h
[8] = tested on: HMEC; experiment: Cytotoxicity against HMEC after 48 hrs by MTT assay; assay type: cell-based; details: Homo sapiens
[9] = species: Homo sapiens; experiment: Inhibition of human topoisomerase-2 assessed as reduction in relaxation of kinetoplast DNA at 50 uM after 30 mins by ethidium bromide staining based agarose gel electrophoresis method
[10] = species: Homo sapiens; experiment: Inhibition of human topoisomerase-2 assessed as reduction in relaxation of kinetoplast DNA at 100 uM after 30 mins by ethidium bromide staining based agarose gel electrophoresis method
[11] = species: Homo sapiens; experiment: Inhibition of human topoisomerase-2 assessed as reduction in relaxation of kinetoplast DNA at 200 uM after 30 mins by ethidium bromide staining based agarose gel electrophoresis method
[12] = tested on: HepG2; experiment: Cell cycle arrest in human HepG2 cells assessed as accumulation at G2/M phase at 1 uM after 42 hrs by propidium iodide staining based flow cytometry relative to control; assay type: functional
[13] = tested on: HepG2; experiment: Cell cycle arrest in human HepG2 cells assessed as accumulation at G2/M phase at 5 to 10 uM after 42 hrs by propidium iodide staining based flow cytometry; assay type: functional
[14] = tested on: L02; experiment: Cell cycle arrest in human HL7702 cells assessed as accumulation at G2/M phase at 5 to 10 uM after 42 hrs by propidium iodide staining based flow cytometry relative to control; details: l02, 42 h
[15] = tested on: HepG2; experiment: Induction of apoptosis in human HepG2 cells assessed as necrotic cells at 10 uM after 42 hrs by Annexin V-FITC/propidium iodide staining based flow cytometry (reference value: 0.3%); assay type: functional
[16] = tested on: HepG2; experiment: Induction of apoptosis in human HepG2 cells assessed as late apoptotic cells at 10 uM after 42 hrs by Annexin V-FITC/propidium iodide staining based flow cytometry (reference value: 0.9%); assay type: functional
[17] = tested on: HepG2; experiment: Induction of apoptosis in human HepG2 cells assessed as early apoptotic cells at 10 uM after 42 hrs by Annexin V-FITC/propidium iodide staining based flow cytometry (reference value: 0.5%); assay type: functional
[18] = tested on: HepG2; experiment: Induction of apoptosis in human HepG2 cells assessed as live cells at 10 uM after 42 hrs by Annexin V-FITC/propidium iodide staining based flow cytometry (reference value: 98.2%); assay type: functional
[19] = Induction of apoptosis in human HL7702 cells assessed as live cells at 100 uM after 42 hrs by Annexin V-FITC/propidium iodide staining based flow cytometry (reference value: 98.5%); assay type: cell-based; details: HL7702 (L02) cells, read-out: Activity
[20] = tested on: L02; experiment: Induction of apoptosis in human HL7702 cells assessed as early apoptotic cells at 100 uM after 42 hrs by Annexin V-FITC/propidium iodide staining based flow cytometry (reference value: 0.3%); assay type: cell-based; details: l02, 42 h
[21] = tested on: L02; experiment: Induction of apoptosis in human HL7702 cells assessed as late apoptotic cells at 100 uM after 42 hrs by Annexin V-FITC/propidium iodide staining based flow cytometry (reference value: 1%); assay type: cell-based; details: l02, 42 h
[22] = tested on: L02; experiment: Induction of apoptosis in human HL7702 cells assessed as necrotic cells at 100 uM after 42 hrs by Annexin V-FITC/propidium iodide staining based flow cytometry (reference value: 0.2%); assay type: cell-based; details: l02, 42 h
[23] = tested on: L02; experiment: Induction of DNA damage in human HL7702 cells assessed as gammaH2AX accumulation at 50 uM after 12 hrs by DAPI staining based immuno-fluorescence assay; assay type: cell-based; details: l02, 12 h
[24] = tested on: L02; experiment: Upregulation of HMGB1 expression in human HL7702 cells at 50 uM after 12 hrs by proteomic analysis; assay type: functional, cell-based
[25] = tested on: L02; experiment: Upregulation of PARK7 expression in human HL7702 cells at 50 uM after 12 hrs by proteomic analysis; assay type: functional, cell-based
[26] = tested on: L02; experiment: Upregulation of SRSF3 expression in human HL7702 cells at 50 uM after 12 hrs by proteomic analysis relative to control; assay type: functional, cell-based
[27] = tested on: L02; experiment: Upregulation of COX5A expression in human HL7702 cells at 50 uM after 12 hrs by proteomic analysis relative to control; assay type: functional, cell-based
[28] = tested on: L02; experiment: Upregulation of Akt expression in human HL7702 cells at 50 uM after 12 hrs by proteomic analysis relative to control; assay type: functional, cell-based

SMILES	IC50 [1]	IC50 [2]	IC50 [3]	IC50 [4]	IC50 [5]	IC50 [6]	IC50 [7]	IC50 [8]	other results
COc1cc([C@@H]2c3cc4c(cc3[C@@H](c3nc5cc(C(F)(F)F)ccc5o3)[C@H]3COC(=O)[C@H]23)OCO4)cc(OC)c1O	19.5 µM	79.5 µM	21.1 µM	81 µM	6.5 µM	73.3 µM	34.5 µM	72.8 µM	–
COc1cc([C@@H]2c3cc4c(cc3[C@@H](O)[C@H]3COC(=O)[C@H]23)OCO4)cc(OC)c1O [4'-DEMETHYLEPIPODOPHYLLOTOXIN]	26.1 µM	19.4 µM	27.8 µM	25.1 µM	19 µM	21.3 µM	30.1 µM	19.6 µM	–
COc1cc([C@@H]2c3cc4c(cc3[C@@H](c3nc5cc(C)ccc5s3)[C@H]3COC(=O)[C@H]23)OCO4)cc(OC)c1O	8.2 µM	24.2 µM	5.1 µM	27.5 µM	3 µM	47 µM	5.4 µM	15.6 µM	–
COc1cc([C@@H]2c3cc4c(cc3[C@@H](c3nc5c(F)c(F)c(F)c(F)c5s3)[C@H]3COC(=O)[C@H]23)OCO4)cc(OC)c1O	14.5 µM	35.6 µM	2.3 µM	24.7 µM	4.2 µM	41.4 µM	5.5 µM	18.2 µM	–
COc1cc([C@@H]2c3cc4c(cc3[C@@H](c3nc5cc(C)ccc5o3)[C@H]3COC(=O)[C@H]23)OCO4)cc(OC)c1O	15.4 µM	31.5 µM	15.4 µM	19.5 µM	8 µM	39 µM	14.4 µM	12.6 µM	–
COc1cc([C@@H]2c3cc4c(cc3[C@@H](c3nc5cnccc5[nH]3)[C@H]3COC(=O)[C@H]23)OCO4)cc(OC)c1O	> 100 µM	59.8 µM	> 100 µM	> 100 µM	> 100 µM	63.4 µM	> 100 µM	> 100 µM	–
COc1cc([C@@H]2c3cc4c(cc3[C@@H](c3nc5c(F)c(F)c(F)c(F)c5o3)[C@H]3COC(=O)[C@H]23)OCO4)cc(OC)c1O	6.8 µM	75.1 µM	4.3 µM	44.6 µM	1.7 µM	65.4 µM	3.5 µM	75.5 µM	–
COc1cc([C@@H]2c3cc4c(cc3[C@@H](C3CC(c5ccncc5F)=CN3)[C@H]3COC(=O)[C@H]23)OCO4)cc(OC)c1O (some centres not stated)	2.8 µM	19.8 µM	1.9 µM	19.2 µM	1.4 µM	28.1 µM	2.5 µM	31.5 µM	–
COc1cc([C@@H]2c3cc4c(cc3[C@@H](C3CC(c5ccncc5)=CN3)[C@H]3COC(=O)[C@H]23)OCO4)cc(OC)c1O (some centres not stated)	10 µM	22.8 µM	5.7 µM	23.6 µM	2 µM	19 µM	4.3 µM	38.1 µM	–
COc1cc([C@@H]2c3cc4c(cc3[C@@H](c3nc5ccccc5s3)[C@H]3COC(=O)[C@H]23)OCO4)cc(OC)c1O	6.7 µM	22.7 µM	5.1 µM	19.4 µM	2.6 µM	136 µM	11.5 µM	28.6 µM	–
COc1cc([C@@H]2c3cc4c(cc3[C@@H](c3nc5ccccc5o3)[C@H]3COC(=O)[C@H]23)OCO4)cc(OC)c1O	19.4 µM	17.7 µM	16.4 µM	20.4 µM	25.6 µM	32.3 µM	21.4 µM	15.6 µM	–
COc1cc([C@@H]2c3cc4c(cc3[C@@H](c3nc5cnc(F)cc5[nH]3)[C@H]3COC(=O)[C@H]23)OCO4)cc(OC)c1O	22.5 µM	29.8 µM	11.9 µM	34 µM	24.5 µM	41.3 µM	16.4 µM	> 100 µM	inhibition [9]: inactive; inhibition [10]: inactive; inhibition [11]: Active
COc1cc([C@@H]2c3cc4c(cc3[C@@H](C3CC(S)NN3c3ccccc3F)[C@H]3COC(=O)[C@H]23)OCO4)cc(OC)c1O (some centres not stated)	4.5 µM	73 µM	3.8 µM	64.2 µM	2.8 µM	89.2 µM	1.5 µM	58.2 µM	–
COc1cc([C@@H]2c3cc4c(cc3[C@@H](c3nc5cc(-c6ccccc6)ccc5o3)[C@H]3COC(=O)[C@H]23)OCO4)cc(OC)c1O	> 100 µM	21.7 µM	> 100 µM	> 100 µM	> 100 µM	76.3 µM	> 100 µM	83.4 µM	–
COc1cc([C@@H]2c3cc4c(cc3[C@@H](c3nc5cc(OC(F)F)ccc5[nH]3)[C@H]3COC(=O)[C@H]23)OCO4)cc(OC)c1O	1.6 µM	15.6 µM	2.1 µM	55.4 µM	1.3 µM	60.2 µM	2.4 µM	51.4 µM	–
COc1cc([C@@H]2c3cc4c(cc3[C@@H](c3nc5cc(C(F)(F)F)ccc5s3)[C@H]3COC(=O)[C@H]23)OCO4)cc(OC)c1O	19.5 µM	79.5 µM	21.1 µM	81 µM	6.5 µM	73.3 µM	34.5 µM	42.3 µM	–
COc1cc([C@@H]2c3cc4c(cc3[C@@H](c3nc5cc(-c6ccccc6)ccc5s3)[C@H]3COC(=O)[C@H]23)OCO4)cc(OC)c1O	15.3 µM	18.6 µM	22.5 µM	47.6 µM	5.7 µM	35.6 µM	> 100 µM	54.1 µM	–
COc1cc([C@@H]2c3cc4c(cc3[C@@H](O[C@@H]3O[C@@H]5CO[C@@H](C)O[C@H]5[C@H](O)[C@H]3O)[C@H]3COC(=O)[C@H]23)OCO4)cc(OC)c1O [ETOPOSIDE]	20 µM	24.6 µM	21.4 µM	75.4 µM	22.5 µM	33.5 µM	53.8 µM	21.5 µM	inhibition [9]: inactive; inhibition [10]: Active; inhibition [11]: Active; Activity [12]: 33%; Activity [13]: Active; Activity [14]: 64%; Activity [15]: 5.4%; Activity [16]: 11%; Activity [17]: 7%; Activity [18]: 76.6%; viability at 42 h, 100 µM [19]: 28%; Activity [20]: 37%; Activity [21]: 32.8%; Activity [22]: 2.2%; Activity [23]: Toxic; Activity [24]: inactive; Activity [25]: inactive; Activity [26]: inactive; Activity [27]: inactive; Activity [28]: inactive
